In EP2364976B1, “S1P receptor modulating compounds and use thereof” (EPIX Pharmaceuticals, Inc., priority 2007, dated 2007) one finds EC50 data, which are given here for 27 compounds.

Values joined by “and” are separate entries in the source; they are usually repeats but may differ in a detail not shown here. Identical values can stand only once.

In this experiment the target is T1, hS1P1 (Homo sapiens, UniProt P21453).
T1 construct: expressed in transfected cells
As to the kind of experiment: hS1P1 EC50 (S1P receptor Ca2+ flux protocol, FLIPR, CHO K1 Gqi5 cells). The experiment is classed as cell-based. The settings on record: several values per compound = repeat determinations as printed. The protocol:
S1P receptor activity may also be measured by an SIP receptor (e.g., hS1P1, hS1P3, rS1P1, rS1P3 and parental cell) Ca^2+ Flux protocol as described below: • 1. Material • a. FLIPR buffer: 1x HBSS; 10mM HEPES • b. Cell growth media: • i. human and rat S1P1 and S1P3: F12-Ham's media; 10% FBS (qualified); 1x Pen/Strep/Glu; 300ug/mL Hygromycin; 400ug/mL Geneticin ii. Parental cell: human and rat S1P and S1P3: F12-Ham's media; 10% FBS (qualified); 1x Pen/Strep/Glu; 300ug/mL Hygromycin; • c. Cell seeding media; F12-Ham's media; 10% FBS (Charcoal/dextran stripped); 1x Pen/Strep/Glu; • d. Cell dissociation buffer: Versene from Invitrogen • e. Agonist (SIP) dissolving buffer: 0.4% (w/v) fatty-acid free BSA (Sigma # A8806) in FLIPR buffer • f. FLIPR dye: BD PBX Calcium assay kit; Cat#641077 is composed of Calcium indicator (Cat#850000) and 100x PBX signal enhancer (cat#850001). The 100x PBX signal enhancer is diluted into FLIPR buffer 1:100 and the calcium indicator is then added at 1:1000 ratio. • g. Cell plates (96-well): Greiner Cat#655090 • h. Compound plates (96-well): Costar #3365 • i. S1P stock solution preparation: S1P is purchased from CalBioChem (Catalog # 970471; 1mg vial; custom prep using methanol, & nitrogen gas drying inside glass vial; Storage @ -20°C). Dissolve 1 vial of SIP into 26.4ml of agonist dissolving buffer in a 50ml centrifuge tube; Remove label from bottle of SIP, open and drop entire bottle into tube. Sonicate at 37° for ½ hour. Clear solution of 100µM will result. This stock solution is aliquoted and stored at -80C • 2. Cell line maintenance • a. V5 tags were added at the N-terminus of hS1P1, hS1P3, rS1P1 and rS1P3. All four genes were transfected into CHO K1 cells which stably express Gqi5. • b. hS1P1 and hS1P3 were established as stable clones and rS1P1 and rS1P3 were sorted by anti V5 tag and established as stable pools after sorting. • c. Parental cell line CHO/K1 Gqi5 is used as the control. • d. All the cells are maintained in cell growth media and splitted twice a week using Versene. • e. All the cell lines are used under passage 30. • 3. Assay protocol • a. Cell seeding: Cells are lifted from the flask by Versene and seeded in cell plates at 50K/well in cell seeding media. Cells are grown overnight at 37 degree. • b. Cell loading: Cell seeding media is discarded. Cells are loaded with 50ul of FLIPR dye at RT for 90 min. Signal is stable for up to 5 h after dye loading. • c. Agonist (S1P) preparation: Frozen stock of S1P is thawed out and sonicated at 37c for 30 minutes every time before use. The stock is then diluted into FLIPR buffer at proper concentration. • d. Compound preparation: Compounds are dissolved in DMSO. A 3x, 10 point dilution of the compounds are carried out in DMSO. Then the compounds are diluted into assay buffer133x so that the DMSO concentration is 0.75%. • e. Activity measurement: The fluorescence signal change of the cells upon compound addition is monitored in FLIPRtetra. 25ul of compound is transferred into the cell plates (50ul of FLIPR dye; DMSO concentration: 0.25%). Signal is recorded for 90sec after compound addition. Then 50ul of 500nM SIP is added in the cell plate, and signal is recorded for 90 seconds upon addition. • 4. Data analysis • a. Peak value is calculated for each compound/S1P addition • b. The peak value of S1P at 200nM is used as high control (100%), and the peak value of buffer only is used as low control (0%). • c. Data is normalized against high and low controls using the following equation: POC_S = 100*(RAW-LO)/(HI-LO) [formula] • d. Peak value is plotted against the concentration of compound. • e. Curve is fitted using the 4 parameter fit: Y = (A+(B/(1+(((x/C))^(∧)D)))) [formula] where: Y is POC_S (or POC) • X is compound concentration • A is the minimum (EC50min or IC50min) • B is the maxmum (EC50max or IC50max) • C is the inflection point (EC50IP or IC50IP) • D is the hill slope (EC50 slope or IC50 slope).
On the technique in general: A change in cytosolic calcium serves as a functional read-out for many receptors and channels.

T1 sequence (P21453 whole entry): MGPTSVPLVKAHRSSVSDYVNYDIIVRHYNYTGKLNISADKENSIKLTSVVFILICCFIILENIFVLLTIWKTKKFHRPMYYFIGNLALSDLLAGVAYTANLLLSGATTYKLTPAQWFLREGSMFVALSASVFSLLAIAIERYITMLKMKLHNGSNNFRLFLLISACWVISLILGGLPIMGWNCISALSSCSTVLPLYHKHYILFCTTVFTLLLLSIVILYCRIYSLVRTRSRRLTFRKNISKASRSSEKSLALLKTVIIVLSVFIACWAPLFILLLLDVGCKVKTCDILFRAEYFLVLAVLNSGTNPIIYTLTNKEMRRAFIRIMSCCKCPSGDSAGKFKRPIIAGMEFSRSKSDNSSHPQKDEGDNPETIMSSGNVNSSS

A word on the EC50: it is the concentration at which the effect is half-maximal. As for `O=C(O)C1CN(Cc2ccc(-c3cc4cc(C5CCCCC5)ccc4o3)c(F)c2)C1` [Reference Compound 27], the EC50 was 0.16 µM and 0.361 µM.

For `O=C(O)C1CN(Cc2ccc(-c3cc4cc(-c5cccs5)ccc4o3)cc2)C1` [Reference Compound 28, 1-((4-(5-(thiophen-2-yl)benzofuran-2-yl)phenyl)methyl)azetidine-3-carboxylic acid], the EC50 is 1.8 µM.

Regarding `O=C(O)CCN1CCc2cc(-c3cc4cc(Cc5ccccc5)ccc4o3)ccc2C1` [Reference Compound 29, 3-(6-(5-benzylbenzofuran-2-yl)-3,4-dihydroisoquinolin-2(1H)-yl)propanoic acid], the EC50 is 0.16 µM and 0.261 µM.

The compound `O=C(O)C1CN(Cc2ccc(-c3cc4cc(C5CCCC5)ccc4o3)cc2)C1` [Reference Compound 30, 1-(4-(5-cyclopentylbenzofuran-2-yl)benzyl)azetidine-3-carboxylic acid] registered an EC50 of 0.21 µM.

Take `O=C(O)C1CN(Cc2ccc(-c3cc4cc(N5CCCCC5)ccc4o3)c(F)c2)C1` [Reference Compound 31, 1-(3-fluoro-4-(5-(piperidin-1-yl)benzofuran-2-yl)benzyl)azetidine-3-carboxylic acid]: the EC50 was 0.86 µM and 0.307 µM.

`O=C(O)C1CN(Cc2ccc(-c3cc4cc(Cc5ccccc5)ccc4o3)nc2)C1` [Reference Compound 32, 1-((6-(5-benzylbenzofuran-2-yl)pyridin-3-yl)methyl)azetidine-3-carboxylic acid]: the concentration for a half-maximal effect (EC50) was 2.6 µM and 0.516 µM.

Take `COc1cc(CN2CC(C(=O)O)C2)ccc1-c1cc2cc(Cc3ccccc3)ccc2o1` [Reference Compound 33, 1-((4-(5-benzylbenzofuran-2-yl)-3-methoxyphenyl)methyl)azetidine-3-carboxylic acid]: the EC50 is 1 µM and 1.9 µM and 0.196 µM.

On to `O=C(O)C1CN(Cc2ccc(-c3cc4cc(N5CCCCC5)ccc4o3)cc2)C1` [Reference Compound 34, 1-(4-(5-(piperidin-1-yl)benzofuran-2-yl)benzyl)azetidine-3-carboxylic acid], for which the EC50 is 1.5 µM.

`O=C(O)C1CN(Cc2ccc(-c3cc4cc(Cc5ccccc5)ccc4o3)c(Cl)c2)C1` [Reference Compound 36, 1-((4-(5-benzylbenzofuran-2-yl)-3-chlorophenyl)methyl)azetidine-3-carboxylic acid] gave an EC50 of 0.199 µM.

With `O=C(O)CCN1CCc2cc(-c3cc4cc(C5CCCC5)ccc4o3)ccc2C1` [Reference Compound 37, 3-(6-(5-cyclopentylbenzofuran-2-yl)-3,4-dihydroisoquinolin-2(1H)-yl)propanoic acid], the EC50 was 4.17 µM.

`O=C(O)C1CN(Cc2ccc(-c3cc4cc(OCC5CCCC5)ccc4o3)c(F)c2)C1` [Reference Compound 38, 1-(4-(5-(cyclopentylmethoxy)benzofuran-2-yl)-3-fluorobenzyl)azetidine-3-carboxylic acid] yielded a 50% effective concentration (EC50) of 0.803 µM.

In the case of `Cc1cc(CN2CC(C(=O)O)C2)ccc1-c1cc2cc(Cc3ccccc3)ccc2o1` [Reference Compound 43, 1-((4-(5-Benzylbenzofuran-2-yl)-3-methylphenyl)methyl)azetidine-3-carboxylic acid], the EC50 was 0.241 µM. This EC50 is about 3.3-fold lower than that of the compound before.

For the compound `CCCCOc1ccc2oc(-c3ccc4c(c3)CCN(CCC(=O)O)C4)cc2c1` [Reference Compound 44, 3-(6-(5-butoxybenzofuran-2-yl)-3,4-dihydroisoquinolin-2(1H)-yl)propanoic acid], the EC50 came to 4.44 µM. This EC50 is about 18-fold higher than that of the compound before.

In turn, `O=C(O)CCNC1Cc2ccc(-c3cc4cc(Cc5ccccc5)ccc4o3)cc2C1` (stereo not drawn) [Reference Compound 45, 3-(5-(5-benzylbenzofuran-2-yl)-2,3-dihydro-1H-inden-2-ylamino)-propanoic acid] had an EC50 of 0.807 µM. This EC50 is about 5.5-fold lower than that of the compound before.

As to `COc1cc(CN2CC(C(=O)O)C2)ccc1-c1cc2cc(C3CCCC3)ccc2o1` [Reference Compound 47, 1-((4-(5-cyclopentylbenzofuran-2-yl)-3-methoxyphenyl)methyl)azetidine-3-carboxylic acid], the EC50 amounted to 1.07 µM. The EC50 values of the last two compounds are within 1.5-fold of each other.

In turn, `O=C(O)C1CN(Cc2cc(F)c(-c3cc4cc(Cc5ccccc5)ccc4o3)c(F)c2)C1` [Reference Compound 48, 1-((4-(5-Benzylbenzofuran-2-yl)-3,5-difluorophenyl)methyl)azetidine-3-carboxylic acid] gave an EC50 of 0.089 µM.

Turning to `O=C(O)C1CN(Cc2ccc(-c3cc4cc(OCC5CC5)ccc4o3)c(F)c2)C1` [Reference Compound 49], a half-maximal response (EC50) required 0.109 µM.

For `CCCCOc1ccc2oc(-c3ccc(CN4CC(C(=O)O)C4)cc3Cl)cc2c1` [Reference Compound 50, 1-((4-(5-Butoxybenzofuran-2-yl)-3-chlorophenyl)methyl)azetidine-3-carboxylic acid], the midpoint of the response, the EC50, lay at 0.266 µM.

Turning to `O=C(O)C1CN(Cc2ccc(-c3cc4cc(C5CCCC5)ccc4o3)c(Cl)c2)C1` [Reference Compound 51, 1-((3-chloro-4-(5-cyclopentylbenzofuran-2-yl)phenyl)methyl)azetidine-3-carboxylic acid], the EC50 stood at 0.558 µM.

The compound `O=C(O)C1CN(Cc2ccc(-c3cc4cc(N5CCOCC5)ccc4o3)c(F)c2)C1` [Reference Compound 53, 1-((3-fluoro-4-(5-morpholinobenzofuran-2-yl)phenyl)methyl)azetidine-3-carboxylic acid] showed an EC50 of 2.09 µM.

The compound `O=C(O)C1CN(Cc2ccc(-c3cc4cc(Cc5ccccc5)ccc4o3)c(F)c2)CCO1` (stereo not drawn) [Reference Compound 54, 4-((4-(5-benzylbenzofuran-2-yl)-3-fluorophenyl)methyl)morpholine-2-carboxylic acid] showed an EC50 of 1.86 µM.

Regarding `O=C(O)C1CN(Cc2ccc(-c3cc4cc(OCC5CCCC5)ccc4o3)c(F)c2)CCO1` (stereo not drawn) [Reference Compound 55, 4-((4-(5-(cyclopentylmethoxy)benzofuran-2-yl)-3-fluorophenyl)methyl)morpholine-2-carboxylic acid], the EC50 is > 25 µM.

In turn, `O=C(O)CCN1CCc2cc(-c3cc4cc(OCC5CCCC5)ccc4o3)ccc2C1` [Reference Compound 57, 3-(6-(5-(cyclopentylmethoxy)benzofuran-2-yl)-3,4-dihydroisoquinolin.2(1H)-yl)propanoic acid] gave an EC50 of 0.877 µM.

Regarding `O=C(O)CCNCc1ccc(-c2cc3cc(C4CCCC4)ccc3o2)c(F)c1` [Reference Compound 58, 3-(4-(5-cyclopentylbenzofuran-2-yl)-3-fluorobenzylamino)propanoic acid], the EC50 is 1.07 µM. This EC50 and that of the compound before are within 1.5-fold of each other.

For the compound `O=C(O)C1CN(Cc2ccc(-c3cc4cc(C5CCOCC5)ccc4o3)c(F)c2)C1` [Reference Compound 61], the concentration for a half-maximal effect (EC50) stood at 0.207 µM.

As for `O=C(O)[C@@H]1CCCN(Cc2ccc(-c3cc4cc(Cc5ccccc5)ccc4o3)c(F)c2)C1` [Reference Compound 62, (3R)-1-((4-(5-Benzylbenzofuran-2-yl)-3-fluorophenyl)methyl)piperidine-3-carboxylic acid], the EC50 was 5.45 µM.

The compound `O=C(O)[C@H]1CCCN(Cc2ccc(-c3cc4cc(Cc5ccccc5)ccc4o3)c(F)c2)C1` [Reference Compound 63, (3S)-1-((4-(5-Benzylbenzofuran-2-yl)-3-fluorophenyl)methyl)piperidine-3-carboxylic acid] gave an EC50 of 3.34 µM.
